Laboratory results published in ChEMBL document CHEMBL4673321, “15β-Senecioyl-oxy-ent-kaur-16-en-19-oic Acid, a Diterpene Isolated from Baccharis lateralis, as Promising Oral Compound for the Treatment of Schistosomiasis” (J Nat Prod, 2020).
Calls of active or inactive are those of the source. No cut-off for these calls is given here.

Experiments:
Schistosoma mansoni [1] = experiment: Antischistosomal activity against Schistosoma mansoni BH cercariae infected in mouse assessed as reduction in worm burden at 400 mg/kg, po administered as single dose starting on day 49 post-infection and measured after 14 days post treatment relative to control; assay type: functional; parameters: scale not given: the % may be the effect or the level left; details: time 14 day
[2] = Cytotoxicity against human HaCaT cells assessed as reduction in cell viability after 48 hrs by MTT assay; assay type: cell-based
Schistosoma mansoni [3] = experiment: Antischistosomal activity against Schistosoma mansoni BH assessed as reduction in parasitic viability after 72 hrs by inverted microscopic method; assay type: functional
[4] = Selectivity index, ratio of CC50 for cytotoxicity against human SH-SY5Y cells to LC50 for antischistosomal activity against Schistosoma mansoni BH; assay type: toxicity, cell-based; details: read-out: Selectivity Index
[5] = Cytotoxicity against human SH-SY5Y cells assessed as reduction in cell viability after 48 hrs by MTT assay; assay type: cell-based
[6] = Selectivity index, ratio of CC50 for cytotoxicity against human HaCaT cells to LC50 for antischistosomal activity against Schistosoma mansoni BH; assay type: toxicity, cell-based; details: read-out: Selectivity Index
Schistosoma mansoni [7] = experiment: Antischistosomal activity against Schistosoma mansoni BH assessed as reduction in oviposition at 25 uM after 72 hrs light microscopic method; assay type: functional, organism-based
Schistosoma mansoni [8] = experiment: Antischistosomal activity against male Schistosoma mansoni BH assessed as dilation of testes at 25 uM after 72 hrs microscopic method; assay type: functional, organism-based
Schistosoma mansoni [9] = experiment: Antischistosomal activity against female Schistosoma mansoni BH assessed as dilation of ovaries at 25 uM after 72 hrs microscopic method; assay type: functional, organism-based
Schistosoma mansoni [10] = experiment: Antischistosomal activity against Schistosoma mansoni BH assessed as reduction in parasitic viability at 25 uM after 24 hrs inverted light microscopic method; assay type: functional, organism-based
Schistosoma mansoni [11] = experiment: Antischistosomal activity against Schistosoma mansoni BH cercariae infected in mouse assessed as reduction in egg burden in wall of intestine at 400 mg/kg, po administered as dose starting on day 49 post-infection and measured after 14 days post treatment relative to control; assay type: functional; parameters: scale not given: the % may be the effect or the level left; details: time 14 day
Schistosoma mansoni [12] = experiment: Antischistosomal activity against Schistosoma mansoni BH assessed as reduction in oviposition at 6.25 to 25 uM after 72 hrs light microscopic method; assay type: functional, organism-based; details: dose 6.25-25 µM
Schistosoma mansoni [13] = experiment: Antischistosomal activity against Schistosoma mansoni BH cercariae infected in mouse assessed as reduction in spleen weight at 400 mg/kg, po administered as dose starting on day 49 post-infection and measured after 14 days post treatment relative to control; assay type: functional; parameters: scale not given: the % may be the effect or the level left; details: time 14 day
Schistosoma mansoni [14] = experiment: Antischistosomal activity against Schistosoma mansoni BH cercariae infected in mouse assessed as reduction in egg burden in fecal at 400 mg/kg, po administered as dose starting on day 49 post-infection and measured after 14 days post treatment relative to control; assay type: functional; parameters: scale not given: the % may be the effect or the level left; details: time 14 day
[15] = Toxicity in mouse infected with Schistosoma mansoni BH cercariae at 400 mg/kg, po after 14 days administered as dose starting on day 49 post-infection and measured after 14 days; assay type: organism-based; details: in vivo, 336 h, time 14 day
Schistosoma mansoni [16] = experiment: Antischistosomal activity against Schistosoma mansoni BH cercariae infected in mouse assessed as reduction in liver weight at 400 mg/kg, po administered as dose starting on day 49 post-infection and measured after 14 days post treatment relative to control; assay type: functional; parameters: scale not given: the % may be the effect or the level left; details: time 14 day

| SMILES | Activity (Schistosoma mansoni [1]) [%] | CC50 at 48 h [2] [µM] | LC50 (Schistosoma mansoni [3]) [µM] | selectivity ratio [4] | CC50 at 48 h [5] [µM] | selectivity ratio [6] | Activity (Schistosoma mansoni [7]) | Activity (Schistosoma mansoni [8]) | Activity (Schistosoma mansoni [9]) | Activity (Schistosoma mansoni [10]) | Activity (Schistosoma mansoni [11]) [%] | Activity (Schistosoma mansoni [12]) | Activity (Schistosoma mansoni [13]) [%] | Activity (Schistosoma mansoni [14]) [%] | Activity [15] | Activity (Schistosoma mansoni [16]) [%] |
| --- | --- | --- | --- | --- | --- | --- | --- | --- | --- | --- | --- | --- | --- | --- | --- | --- |
| O=C(C1CCCCC1)N1CC(=O)N2CCc3ccccc3C2C1 (stereo not given) [PRAZIQUANTEL] | 91.1 | > 200 | 1.1 | > 180 | > 200 | > 180 |  |  |  |  |  |  |  |  |  |  |
| C=C1C[C@@]23CC[C@H]4[C@@](C)(CCC[C@@]4(C)C(=O)O)[C@@H]2CC[C@@H]1C3 [KAURENOIC ACID] |  | 109 | 26.1 | 1.7 | 45.4 | 4.2 | Active | inactive | inactive | Active |  |  |  |  |  |  |
| C=C1[C@@H]2CC[C@H]3[C@]4(C)CCC[C@@](C)(C(=O)O)[C@H]4CC[C@]3(C2)[C@H]1OC(=O)C=C(C)C | 61.9 | 147 | 11.6 | 9.1 | 106 | 12.7 |  | Active | Active | Active | 69.2 | Active | 29.8 | 71.6 | Non-Toxic | 23.5 |
